Reference: US7888385B2, “Airway alkalinization as therapy for airway diseases” (priority 2002, dated 2011)
Structures can show the parent of a compound that is named as a salt.

What was measured:
[1] = cited from earlier work
[2] = system: glutaminase; experiment: Glutaminase activity in cultured lung epithelial cells; assay type: cell-based; details: 100 u/ml, at 24 and 48 hours, p<0.01, n=3 each
Description: An indirect effect of HRV infection involving inflammatory and/or neuronal mediators is also possible. In particular, IFN γ is a likely candidate to mediate glutaminase inhibition because 1) Th1 cytokines inhibit glutaminase activity in lower airway epithelial cells 2) IFN γ inhibits glutaminase in other cell systems; and 3) IFN γ production following HRV infection in the setting of Th2-lymphocyte associated chronic inflammation may contribute to asthmatic airway narrowing. Applicants have shown that 100 u/ml interferon gamma inhibits glutaminase activity in cultured lung epithelial cells in excess of 65% at 24 and 48 hours (p<0.01, n=3 each). Though circulating T cells could produce IFN γ during rhinovirus infections, it seems more likely that it would be secreted in the airway itself as a result of local recruitment and activation of Th1 and/or CD8 cells.
In accordance with one embodiment, a method of treating asthma comprises nebulizing or treating systemically with a compound that facilitates breakdown of S-Nitrosothiols, such as CuCl, Cu/Zn SOD, glutathione peroxidase, glutathione-dependent formaldehyde dehydrogenase or gamma glutamyl transpeptidase. […]

[3] = existing formulations; cited from earlier work
[4] = Practical applications: asthma patient cases; assay type: in vivo, human
Description: (§1) Practical Applications of the Present Invention

[5] = system: airway epithelial glutaminase; experiment: Ammonium accumulation by small airway epithelial cells (SAEC) in 3 mM glutamine; assay type: cell-based, human
Protocol: (SAEC: Clonetics) grown to confluence in six well plates with 3 mM glutamine were incubated with S-Nitrosoglutathione (GSNO; 200 μm) in the presence or absence of cysteinyl glycine (CG; 100 μM). Ammonium accumulation over time was compared with control cells. S-Nitrosoglutathione require conversion to S-Nitrosocysteinyl glycine (CGSNO) (whether through simple transnitrosation reactions in the presence of CG or through cleavage by γ glutamyl transpeptidase) to be fully active at intracellular sites, such as mitochondrial glutaminase, in some system. However, conversion of GSNO to CGSNO dramatically shortens the chemical and biological half-life of the SNO moiety. […] Accumulation of NH4^+ in medium alone was at the threshold of detection.

[6] = system: mycobacteria; details: human, in vivo, pH 3
Description: as §1

For `O=C(O)CNC(CO)(CO)CO` [tricene, N-[tris(hydroxymethyl)methyl] glycine], the pKa [1] is listed as 8.26.
In the case of “interferon gamma: Th1-derived cytokine that inhibits glutaminase”, the “inhibition of glutaminase activity” value [2] is reported as over 65%.
For `CC(C)(C)NC[C@H](O)c1ccc(O)c(CO)c1` [Levalbuterol HCl], the “pH of existing formulation” value [3] is given as 3.3-4.5 and the asthma symptoms ([4]; levalbuterol and budesonide together, 0.5 mg by nebulizer four times/day) is given as “without relief of their symptoms”.
In the case of `N[C@@H](CCC(=O)N[C@@H](CSN=O)C(=O)NCC(=O)O)C(=O)O` [GSNO, S-Nitrosoglutathione], the “NH4+ accumulation at 24 hours” value ([5]; GSNO 200 μm in the presence of cysteinyl glycine 100 μM, 24 hours) is reported as “no NH4^+ at all accumulated” and the “NH4+ accumulation over time vs control cells” value ([5]; GSNO 200 μm, SAEC, p<0.01 by ANOVA) is reported as “inhibited NH4^+ accumulation at each time point”.
In the case of `CC(C)(C)NCC(O)c1ccc(O)c(CO)c1` (centres unmarked) [Albuterol], the “pH of existing formulation” value [3] is listed as 3 to 5, the asthma symptoms ([4]; 0.083 mg diluted in normal saline (pH 3.5), child) is listed as “symptoms do not improve” and the asthma symptoms ([4]; same dose diluted in 10 mM phosphate buffered saline, pH 8) is listed as “symptoms resolve”.
For `[Cl][Cu]` [CuCl], the asthma symptoms ([4]; 10 μM in 10 mM phosphate buffered saline, pH 8, three times/day) was “asthma symptoms resolve”.
For `OC(Cn1cncn1)(Cn1cncn1)c1ccc(F)cc1F` [fluconazole], the asthma symptoms ([4]; 7 day course, 200 mg/day, chronic yeast infection in mouth) was “asthma symptoms improve”.
With `NC(=O)CC[C@H](N)C(=O)O` [glutamine] the asthma symptoms ([4]; 1 gm by mouth three times a day) was “does not develop any asthma symptoms” and the asthma exacerbation ([4]; 1 gm by nebulizer (pH 8) twice a day at onset of upper respiratory symptoms) was “does not develop an asthma exacerbation”.
With `N[C@@H](CS)C(=O)NCC(=O)O` [CG, cysteinyl glycine] the “effect on GSNO inhibition of NH4+ accumulation after 48 hours” value ([5]; cysteinyl glycine 100 μM added to GSNO 200 μm, after 48 hours) was “eliminated the GSNO effect”.
In the case of `O=C(O)CN(CCO)CCO` [bicine, N,N-Bis(2-hydroxyethyl)glycine], the pKa [1] is given as 8.46.
In the case of `CC(=O)O` [acetic acid], the tuberculosis symptoms [6] is reported as “symptoms resolve”.
In the case of `NCC(=O)O` [glycine, aminoacetic acid], the asthma symptoms ([4]; 1 mM glycine in 10 mM CAPS (pH 7.6) by nebulizer immediately before levalbuterol and budesonide) is reported as “becomes asymptomatic”.
